Laboratory results published in publication PMC12192727, “Strategies to Develop Na,K-ATPase-α4 Inhibitors as Male Contraceptives” (International Journal of Molecular Sciences, 2025).
≈ marks a conversion by molar mass, not a printed value.

Legend:
[1] = Solubility as noted when testing was attempted; format: physicochemical
physchem = format: physicochemical; details: PBS pH 7.4; read-out: Solubility
Method: The stock solutions of 11 and 45 were prepared in DMSO at a concentration of 30 mM, and the stock solution of the control compound was prepared in DMSO at a concentration of 30 mM. Progesterone was used as a positive control in the assay. An amount of 10 µL of stock solution of each compound was placed in order into their proper 96-well rack, followed by adding 990 µL of PBS at pH 7.4 into each vial of the capless Solubility Sample plate. This study was performed in duplicate. One stir stick was added to each vial and then sealed using a molded PTDE/SIL 96-Well Plate Cover (Pharmaron, Waltman, MA, USA). The Solubility Sample plate was transferred to the Thermomixer Comfort plate shaker and incubated at RT for 2 h with shaking at 1100 rpm. After 2 h of incubation, stir sticks were removed using a big magnet, and all samples from the Solubility Sample plate were transferred into the filter plate. All the samples were filtered using a vacuum manifold. The filtered samples were diluted with methanol. The soluble fraction (filtrate) was then analyzed by LC-MS/MS, and the compound concentration was determined using 0.3 μM standard solutions prepared from DMSO stocks. The experimental details are reported in the Supporting Information (Table S1). […]
Table S1 . Solubility Results of Test C ompound and Control C ompound in […]
Compound ID Solubility (µM)
Preparation of Stock Solutions: The stock solutions of test compounds were prepared in DMSO at the concentration of 30 mM, and the stock solution of control compound was prepared in DMSO at the concentration of 30 mM.
Progesterone was used as positive control in the assay.
Solubility Determination: 10 µL stock solution of each compound was placed in order into their proper 96-well rack, followed by adding 990 µL of PBS at pH 7.4 into each vial of the cap-less Solubility Sample plate. This study was performed in duplicate. One stir stick was added to each vial and then vials were sealed using a molded PTDE/SIL 96-Well Plate Cover. The Solubility Sample plate was transferred to the Thermomixer Comfort plate shaker and incubated at RT for 2 hours with shaking at 1100 rpm. After 2 hours incubation, stir sticks were removed using a big magnet and all samples from the Solubility Sample plate were transferred into the filter plate. All the samples were filtered by using the Vacuum Manifold. The filtered samples were diluted with methanol. The dilution factor might be changed according to the solubility value and the LC/MS signal response. To prepare 0.3 µM Standards (STD), 30 mM DMSO compound stock solutions were diluted with DMSO to 300 µM and then diluted with methanol to obtain 0.3 µM STDs. Samples were analyzed by LC-MS/MS. All calculations were carried out using Microsoft Excel. The solution filtered was analyzed and quantified against a standard of known concentration in DMSO using LC coupled with Mass spectral peak identification and quantitation. The solubility values of the test compounds were calculated as follow DF means the dilution factor
1. Chromatographic conditions
Apparatus: Triple QuadTM 5500 instrument from AB Inc (Canada) with an ESI interface Column: XSelect Hss T3 2.5µ (2.1×50 mm) Column XP coupled with preguard column Mobile phase: 0.1% formic acid in acetonitrile (A) and 0.1% formic acid in water (B) […]

| Compound | Solubility (in words, precluded testing) [1] | Solubility (physchem) [µM] |
| --- | --- | --- |
| C[C@]12CC[C@H]3[C@@H](CC=C4C[C@@H](O)CC[C@@]43C)[C@@H]1CC[C@@H]2n1cc(-c2ccccc2)nn1 [Compound 30, (3S,8R,9S,10R,13S,14S,17S)-10,13-Dimethyl-17-(4-phenyl-1H-1,2,3-triazol-1-yl)-2,3,4,7,8,9,10,11,12,13,14,15,16,17-tetradecahydro-1H-cyclopenta[a]phenanthren-3-ol] | inadequate solubility | – |
| CC12CCC(=O)C=C1CCCC2c1cn(Cc2ccccc2)nn1 (stereo not drawn) [Compound 39, 5-(1-Benzyl-1H-1,2,3-triazol-4-yl)-4a-methyl-4,4a,5,6,7,8-hexahydronaphthalen-2(3H)-one] | poor solubility | – |
| CC(=O)[C@H]1CC[C@H]2[C@@H]3CCC4=CC(=O)CC[C@]4(C)[C@H]3CC[C@]12C [Progesterone, reference compound] | – | 18.0 (≈ 5.66 µg/mL) |
